The test has as its target T1, human αVβ6 (Homo sapiens, UniProt P06756+P18564).
T1 construct: purchased R & D systems 3817-AV
Description: human αVβ6 HTRF binding assay. To be noted: recombinant human αVβ6 integrin, FITC-conjugated fibronectin. The essentials:
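Biotinylated recombinant αVβ6 (1.25 nM final) incubated with FITC-fibronectin (5 nM) 1 h at RT, then streptavidin-terbium (0.625 nM) added and incubated overnight at RT in the dark before HTRF read. Buffer: 20 mM Tris pH 7.4, 1 mM MgCl2, 1 mM MnCl2, 0.01% Tween 20, 0.01% BSA.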
In general terms: In TR-FRET formats the signal depends on donor and acceptor labels being close together.

The IC50 is the concentration that inhibits the measured activity by half.

T1 sequence (P06756 31-992 limits assumed): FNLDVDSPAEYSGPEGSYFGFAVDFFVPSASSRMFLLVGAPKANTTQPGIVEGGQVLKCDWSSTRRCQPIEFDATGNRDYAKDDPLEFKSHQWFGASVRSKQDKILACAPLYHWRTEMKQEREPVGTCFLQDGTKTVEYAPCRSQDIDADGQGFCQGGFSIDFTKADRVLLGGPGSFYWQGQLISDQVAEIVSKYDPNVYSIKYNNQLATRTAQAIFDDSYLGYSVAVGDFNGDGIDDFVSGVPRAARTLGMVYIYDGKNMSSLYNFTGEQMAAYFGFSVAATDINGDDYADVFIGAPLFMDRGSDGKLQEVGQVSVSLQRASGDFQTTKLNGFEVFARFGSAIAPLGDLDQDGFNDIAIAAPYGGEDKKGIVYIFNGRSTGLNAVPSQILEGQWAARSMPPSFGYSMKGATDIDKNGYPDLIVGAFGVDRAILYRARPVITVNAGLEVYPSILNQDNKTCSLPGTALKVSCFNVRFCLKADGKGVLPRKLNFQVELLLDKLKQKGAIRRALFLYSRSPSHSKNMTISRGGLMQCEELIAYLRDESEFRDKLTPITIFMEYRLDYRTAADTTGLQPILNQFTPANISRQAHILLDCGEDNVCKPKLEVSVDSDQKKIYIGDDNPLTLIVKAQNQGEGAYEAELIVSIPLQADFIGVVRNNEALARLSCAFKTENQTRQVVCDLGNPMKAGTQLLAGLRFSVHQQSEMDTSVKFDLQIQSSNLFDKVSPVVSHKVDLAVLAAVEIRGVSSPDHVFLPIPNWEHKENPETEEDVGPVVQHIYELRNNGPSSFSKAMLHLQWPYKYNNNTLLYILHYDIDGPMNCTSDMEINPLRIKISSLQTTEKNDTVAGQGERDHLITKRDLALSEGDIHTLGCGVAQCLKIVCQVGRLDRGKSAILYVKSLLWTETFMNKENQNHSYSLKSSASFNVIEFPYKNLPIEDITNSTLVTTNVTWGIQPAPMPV
T1 sequence (P18564 22-707 limits assumed): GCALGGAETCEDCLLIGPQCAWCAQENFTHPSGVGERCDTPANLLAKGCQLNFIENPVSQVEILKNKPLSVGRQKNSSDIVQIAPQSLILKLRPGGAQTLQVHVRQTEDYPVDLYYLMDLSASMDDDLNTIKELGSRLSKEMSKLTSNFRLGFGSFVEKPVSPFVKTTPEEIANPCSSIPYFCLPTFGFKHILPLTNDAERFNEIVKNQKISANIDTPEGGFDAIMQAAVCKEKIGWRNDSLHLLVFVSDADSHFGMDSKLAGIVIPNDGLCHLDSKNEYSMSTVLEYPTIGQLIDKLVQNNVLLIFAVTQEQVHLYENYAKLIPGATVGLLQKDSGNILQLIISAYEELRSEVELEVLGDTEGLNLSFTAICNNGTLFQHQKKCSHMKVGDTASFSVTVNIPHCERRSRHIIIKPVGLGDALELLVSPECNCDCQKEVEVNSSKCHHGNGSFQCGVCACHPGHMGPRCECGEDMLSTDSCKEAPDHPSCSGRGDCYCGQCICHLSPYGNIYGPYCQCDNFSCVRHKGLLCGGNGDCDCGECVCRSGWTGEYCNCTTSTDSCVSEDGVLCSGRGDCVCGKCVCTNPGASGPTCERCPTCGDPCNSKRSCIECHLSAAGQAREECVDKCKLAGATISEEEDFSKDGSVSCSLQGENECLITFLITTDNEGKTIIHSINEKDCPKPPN

`COc1ccc([C@H](CC(=O)O)c2cnn(CCCc3ccc4c(n3)NCCC4)c2)cn1` [Example 8, (A)-3-(6-Methoxypyridin-3-yl)-3-(1-(3-(5,6,7,8-tetrahydro-1,8-naphthyridin-2-yl)propyl)-1H-pyrazol-4-yl)propanoic acid]: the half-inhibitory concentration (IC50) stood at 64 nM.

With `COc1ccc([C@@H](CC(=O)O)c2cnn(CCCc3ccc4c(n3)NCCC4)c2)cn1` [Example 9, (R)-3-(6-Methoxypyridin-3-yl)-3-(1-(3-(5,6,7,8-tetrahydro-1,8-naphthyridin-2-yl)propyl)-1H-pyrazol-4-yl)propanoic acid], the IC50 came to 213 nM.

For the molecule `O=C(O)C[C@@H](c1ccc(O)nc1)n1ccc(CCCc2ccc3c(n2)NCCC3)n1` [Example 12, (S)-3-(6-Hydroxypyridin-3-yl)-3-(3-(3-(5,6,7,8-tetrahydro-1,8-naphthyridin-2-yl)propyl)-1H-pyrazol-1-yl)propanoic acid], the IC50 is 31 nM.

Regarding `COc1ccc(C(CC(=O)O)c2cnn(CCCCc3ccc4c(n3)NCCC4)c2)cc1F` (stereo not drawn) [Example 44, 3-(3-fluoro-4-methoxyphenyl)-3-(1-(4-(5,6,7,8-tetrahydro-1,8-naphthyridin-2-yl)butyl)-1H-pyrazol-4-yl)propanoic acid], the IC50 worked out at 64 nM.

On to `O=C(O)C[C@@H](c1cnc2c(c1)OCCO2)n1ccc(CCCc2ccc3c(n2)NCCC3)n1` [Example 51, (S)-3-(2,3-Dihydro-[1,4]dioxino[2,3-b]pyridin-7-yl)-3-(3-(3-(5,6,7,8-tetrahydro-1,8-naphthyridin-2-yl)propyl)-1H-pyrazol-1-yl)propanoic acid], for which the IC50 came to 4.9 nM.

`O=C(O)C[C@H](c1cnc2c(c1)OCCO2)n1ccc(CCCc2ccc3c(n2)NCCC3)n1` [Example 52, (R)-3-(2,3-Dihydro-[1,4]dioxino[2,3-b]pyridin-7-yl)-3-(3-(3-(5,6,7,8-tetrahydro-1,8-naphthyridin-2-yl)propyl)-1H-pyrazol-1-yl)propanoic acid]: the concentration for half-maximal inhibition (IC50) was 730 nM.

As to `Cc1ncc([C@@H](CC(=O)O)n2ccc(CCCc3ccc4c(n3)NCCC4)n2)cn1` [Example 55, (R)-3-(2-Methylpyrimidin-5-yl)-3-(3-(3-(5,6,7,8-tetrahydro-1,8-naphthyridin-2-yl)propyl)-1H-pyrazol-1-yl)propanoic acid], the half-inhibitory concentration (IC50) came out at 900 nM.

For the molecule `CCOc1ncc([C@H](CC(=O)O)n2ccc(CCCc3ccc4c(n3)NCCC4)n2)cn1` [Example 56, (S)-3-(2-Ethoxypyrimidin-5-yl)-3-(3-(3-(5,6,7,8-tetrahydro-1,8-naphthyridin-2-yl)propyl)-1H-pyrazol-1-yl)propanoic acid], the 50% inhibitory concentration (IC50) came out at 7.1 nM.

Regarding `CCOc1ncc([C@@H](CC(=O)O)n2ccc(CCCc3ccc4c(n3)NCCC4)n2)cn1` [Example 81, (R)-3-(2-ethoxypyrimidin-5-yl)-3-(3-(3-(5,6,7,8-tetrahydro-1,8-naphthyridin-2-yl)propyl)-1H-pyrazol-1-yl)propanoic acid], the IC50 amounted to 480 nM.

As for `COc1ncc([C@H](CC(=O)O)n2ccc(CCCc3ccc4c(n3)NCCC4)n2)cn1` [Example 82, (S)-3-(2-methoxypyrimidin-5-yl)-3-(3-(3-(5,6,7,8-tetrahydro-1,8-naphthyridin-2-yl)propyl)-1H-pyrazol-1-yl)propanoic acid], the IC50 amounted to 8.5 nM.

Regarding `COc1ncc([C@@H](CC(=O)O)n2ccc(CCCc3ccc4c(n3)NCCC4)n2)cn1` [Example 83, (R)-3-(2-methoxypyrimidin-5-yl)-3-(3-(3-(5,6,7,8-tetrahydro-1,8-naphthyridin-2-yl)propyl)-1H-pyrazol-1-yl)propanoic acid], the concentration for half-maximal inhibition (IC50) was found to be 310 nM.

Turning to `O=C(O)CC(c1cncnc1)n1ccc(CCCc2ccc3c(n2)NCCC3)n1` (stereo not drawn) [Example 84, 3-(pyrimidin-5-yl)-3-(3-(3-(5,6,7,8-tetrahydro-1,8-naphthyridin-2-yl)propyl)-1H-pyrazol-1-yl)propanoic acid], the IC50 amounted to 110 nM.

(Values after patent US11884661B2, “3-substituted propionic acids as αV integrin inhibitors” (BRISTOL-MYERS SQUIBB COMPANY, priority 2016, dated 2024).)
